Each structure is given as a SMILES string.

From ChEMBL document CHEMBL1147935, “Synthesis and antihypertensive activity of novel 3-benzyl-2-substituted-3H-[1,2,4]triazolo[5,1-b]quinazolin-9-ones” (2007) come the findings set out here.

Assay type in all cases: functional
Holding throughout (design): scale not given: the % may be the effect or the level left

Experiment [1] deals with Rattus norvegicus. In words: Antihypertensive activity in spontaneously hypertensive rat assessed as decrease in blood pressure at 5 mg/kg, po after 5 hrs by tail cuff method.
Experiment [2] relates to Rattus norvegicus. In words: Antihypertensive activity in spontaneously hypertensive rat assessed as decrease in blood pressure at 5 mg/kg, po after 1 hr by tail cuff method.
For experiment [3], the system named is Rattus norvegicus. In words: Antihypertensive activity in spontaneously hypertensive rat assessed as decrease in blood pressure at 5 mg/kg, po after 4 hrs by tail cuff method.
Experiment [4] relates to Rattus norvegicus. In words: Antihypertensive activity in spontaneously hypertensive rat assessed as decrease in blood pressure at 5 mg/kg, po after 3 hrs by tail cuff method.
Experiment [5] has as its system Rattus norvegicus. In words: Antihypertensive activity in spontaneously hypertensive rat assessed as decrease in blood pressure at 5 mg/kg, po after 2 hrs by tail cuff method.

As for `Cc1nn2c(=O)c3ccccc3nc2n1Cc1ccccc1`, the Activity came out at 15.3% with Rattus norvegicus [1]; 15.3% in the experiment with Rattus norvegicus [2]; 38.8% in the experiment on Rattus norvegicus [3]; 33.5% in the experiment with Rattus norvegicus [4]; 31.5% in the experiment with Rattus norvegicus [5].

For the molecule `O=c1c2ccccc2nc2n(Cc3ccccc3)c(CCl)nn12`, the Activity in the experiment on Rattus norvegicus [1] came to 6.7%; in the experiment on Rattus norvegicus [2] it was 3.7%; in the experiment on Rattus norvegicus [3], 17.2%; with Rattus norvegicus [4], 15%; in the experiment with Rattus norvegicus [5], 11.9%.

Consider `O=c1c2ccccc2nc2n(Cc3ccccc3)c(CN3CCOCC3)nn12`, for which the Activity in the experiment on Rattus norvegicus [1] is 19.4%; with Rattus norvegicus [2] it was 8.6%; with Rattus norvegicus [3] it was 25.6%; in the experiment with Rattus norvegicus [4], 21.7%; in the experiment on Rattus norvegicus [5], 10%.

Take `O=c1c2ccccc2nc2n(Cc3ccccc3)c(-c3ccccc3)nn12`: the Activity with Rattus norvegicus [1] stood at 14.1%; in the experiment on Rattus norvegicus [2], 6.1%; with Rattus norvegicus [3], 13.1%; in the experiment on Rattus norvegicus [4] it was 10.1%; in the experiment with Rattus norvegicus [5], 7.1%.

On to `Cc1ccc(-c2nn3c(=O)c4ccccc4nc3n2Cc2ccccc2)cc1`, for which the Activity in the experiment with Rattus norvegicus [1] was 16.2%; with Rattus norvegicus [2] it was 4.7%; in the experiment on Rattus norvegicus [3] it was 11.6%; in the experiment with Rattus norvegicus [4], 9.1%; in the experiment with Rattus norvegicus [5] it was 5.6%.

As to `CCOc1ccc(-c2nn3c(=O)c4ccccc4nc3n2Cc2ccccc2)cc1`, the Activity with Rattus norvegicus [1] worked out at 16.5%; in the experiment on Rattus norvegicus [2], 6.5%; in the experiment on Rattus norvegicus [3], 13.6%; in the experiment with Rattus norvegicus [4] it was 9.52%; in the experiment with Rattus norvegicus [5] it was 7.6%.

Consider `O=c1c2ccccc2nc2n(Cc3ccccc3)cnn12`, for which the Activity in the experiment on Rattus norvegicus [1] was 19.8%; in the experiment on Rattus norvegicus [2] it was 5.4%; in the experiment with Rattus norvegicus [3], 20.8%; in the experiment on Rattus norvegicus [4] it was 17.3%; in the experiment on Rattus norvegicus [5], 7.3%.

Turning to `CCCc1nn2c(=O)c3ccccc3nc2n1Cc1ccccc1`, the Activity with Rattus norvegicus [1] stood at 15.7%; with Rattus norvegicus [2], 13.4%; in the experiment on Rattus norvegicus [3], 17%; in the experiment on Rattus norvegicus [4] it was 19%; in the experiment on Rattus norvegicus [5], 20.5%.

As for `COc1ccc(-c2nn3c(=O)c4ccccc4nc3n2Cc2ccccc2)cc1`, the Activity in the experiment with Rattus norvegicus [1] was 15.4%; with Rattus norvegicus [2], 5.9%; with Rattus norvegicus [3] it was 12.6%; in the experiment with Rattus norvegicus [4], 9.6%; in the experiment with Rattus norvegicus [5], 9.7%.

For `O=c1c2ccccc2nc2n(Cc3ccccc3)c(CN3CCCCC3)nn12`, the Activity in the experiment on Rattus norvegicus [1] is on record as 13.1%; with Rattus norvegicus [2] it was 3.6%; in the experiment with Rattus norvegicus [3], 16.1%; in the experiment with Rattus norvegicus [4], 9.1%; in the experiment on Rattus norvegicus [5], 5.1%.

Consider `COc1cc2nc(N3CCN(C(=O)c4ccco4)CC3)nc(N)c2cc1OC` [PRAZOSIN], for which the Activity worked out at 12.9% in the experiment on Rattus norvegicus [1]; 30.2% with Rattus norvegicus [2]; 19.6% in the experiment on Rattus norvegicus [3]; 18% with Rattus norvegicus [4]; 24.6% with Rattus norvegicus [5].
